Reference: publication PMC6429331, “Synthesis, Molecular Docking and β-Glucuronidase Inhibitory Potential of Indole Base Oxadiazole Derivatives” (Molecules, 2019)

How the values were obtained:
β-glucuronidase = biological target: T1, β-glucuronidase (Bos taurus, UniProt A3KMY8); assay: β-Glucuronidase assay (p-nitrophenyl-β-D-glucuronide, absorbance at 405 nm); assay type: biochemical; conditions: classified into three groups from Table 1
T1 sequence (A3KMY8 24-652): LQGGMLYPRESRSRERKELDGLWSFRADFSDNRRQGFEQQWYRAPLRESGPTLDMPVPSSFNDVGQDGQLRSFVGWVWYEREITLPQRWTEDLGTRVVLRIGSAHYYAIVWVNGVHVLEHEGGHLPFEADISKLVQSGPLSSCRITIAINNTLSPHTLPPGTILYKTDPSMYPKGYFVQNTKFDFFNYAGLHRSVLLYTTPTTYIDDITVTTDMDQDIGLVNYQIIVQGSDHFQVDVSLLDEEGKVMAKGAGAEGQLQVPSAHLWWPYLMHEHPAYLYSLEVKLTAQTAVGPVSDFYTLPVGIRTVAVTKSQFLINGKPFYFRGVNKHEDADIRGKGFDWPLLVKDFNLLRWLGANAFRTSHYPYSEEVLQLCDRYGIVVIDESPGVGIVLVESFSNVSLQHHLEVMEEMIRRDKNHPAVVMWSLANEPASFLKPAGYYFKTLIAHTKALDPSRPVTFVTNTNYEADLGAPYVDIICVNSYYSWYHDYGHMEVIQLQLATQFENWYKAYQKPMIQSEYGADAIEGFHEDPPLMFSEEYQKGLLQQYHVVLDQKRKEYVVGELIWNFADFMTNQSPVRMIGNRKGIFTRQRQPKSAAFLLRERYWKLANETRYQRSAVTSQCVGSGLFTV
Protocol: β-glucuronidase activity was determined in accordance to method used by measuring absorbance at 405 nm of p-nitrophenol formed substrate by spectrophotometric method. 250 µL was the volume of total reaction. Reaction mixture containing 5 µL of test compound solution, 185 µL of 0.1M acetate buffer, and 10 µL of enzyme solution were incubated for 30 min at 37 °C. At 405 nm the plates were recorded on multiplate reader (SpectaMax plus 384) after the addition of 50 µL of 0.4mM p-nitrophenyl-β-D-glucuronide. Experiments were performed for triplicate.

| SMILES | melting point | activity group according to inhibitory IC50 values (β-glucuronidase) |
| --- | --- | --- |
| Cc1ccc(-c2nnc(Cc3cc4ccccc4[nH]3)o2)cc1 [Compound 1, 2-((1H-indol-2-yl)methyl)-5-(p-tolyl)-1,3,4-oxadiazole] | 304 to 305 °C | low active group |
| Cc1ccccc1-c1nnc(Cc2cc3ccccc3[nH]2)o1 [Compound 2, 2-((1H-indol-2-yl)methyl)-5-(o-tolyl)-1,3,4-oxadiazole] | 300 to 301 °C | low active group |
| Oc1ccccc1-c1nnc(Cc2cc3ccccc3[nH]2)o1 [Compound 3, 2-(5-((1H-indol-2-yl)methyl)-1,3,4-oxadiazol-2-yl) phenol] | 314 to 315 °C | – |
| Oc1cccc(-c2nnc(Cc3cc4ccccc4[nH]3)o2)c1 [Compound 4, 3-(5-((1H-indol-2-yl)methyl)-1,3,4-oxadiazol-2-yl) phenol] | 311 to 312 °C | moderate active group |
| Oc1ccc(O)c(-c2nnc(Cc3cc4ccccc4[nH]3)o2)c1 [Compound 5, 2-(5-((1H-indol-2-yl)methyl)-1,3,4-oxadiazol-2-yl) benzene-1,4-diol] | – | moderate active group |
| Oc1cccc(-c2nnc(Cc3cc4ccccc4[nH]3)o2)c1O [Compound 6, 3-(5-((1H-indol-2-yl)methyl)-1,3,4-oxadiazol-2-yl) benzene-1,2-diol] | 317 to 318 °C | Highly active group |
| Oc1ccc(-c2nnc(Cc3cc4ccccc4[nH]3)o2)cc1O [Compound 7, 4-(5-((1H-indol-2-yl)methyl)-1,3,4-oxadiazol-2-yl) benzene-1,2-diol] | 316 to 317 °C | Highly active group |
| Oc1ccc(-c2nnc(Cc3cc4ccccc4[nH]3)o2)c(O)c1 [Compound 8, 4-(5-((1H-indol-2-yl)methyl)-1,3,4-oxadiazol-2-yl) benzene-1,3-diol] | 318 to 319 °C | – |
| O=[N+]([O-])c1ccccc1-c1nnc(Cc2cc3ccccc3[nH]2)o1 [Compound 10, 2-((1H-indol-2-yl)methyl)-5-(2-nitrophenyl)-1,3,4-oxadiazole] | 307 to 308 °C | – |
| O=[N+]([O-])c1cccc(-c2nnc(Cc3cc4ccccc4[nH]3)o2)c1 [Compound 11, 2-((1H-indol-2-yl)methyl)-5-(3-nitrophenyl)-1,3,4-oxadiazole] | 303 to 304 °C | – |
| O=[N+]([O-])c1ccc(-c2nnc(Cc3cc4ccccc4[nH]3)o2)cc1 [Compound 12, 2-((1H-indol-2-yl)methyl)-5-(4-nitrophenyl)-1,3,4-oxadiazole] | 309 to 310 °C | – |
| COc1ccc(O)c(-c2nnc(Cc3cc4ccccc4[nH]3)o2)c1 [Compound 13, 2-(5-((1H-indol-2-yl)methyl)-1,3,4-oxadiazol-2-yl)-4-methoxyphenol] | 313 to 314 °C | – |
| c1cncc(-c2nnc(Cc3cc4ccccc4[nH]3)o2)c1 [Compound 16, 2-((1H-indol-2-yl)methyl)-5-(pyridin-3-yl)-1,3,4-oxadiazole] | 279 to 280 °C | – |
| c1ccc2[nH]c(Cc3nnc(-c4ccncc4)o3)cc2c1 [Compound 17, 2-((1H-indol-2-yl)methyl)-5-(pyridin-4-yl)-1,3,4-oxadiazole] | 284 to 285 °C | – |
| Fc1ccccc1-c1nnc(Cc2cc3ccccc3[nH]2)o1 [Compound 18, 2-((1H-indol-2-yl)methyl)-5-(2-fluorophenyl)-1,3,4-oxadiazole] | 294 to 295 °C | – |
